Assay [1] has as its target human adenosine A2B receptor (Homo sapiens (Human), UniProt P29275). As to the kind of experiment: Adenosine A2B Receptor Cyclic AMP GS Assay. The assay is classed as cell-based. Conditions: HEK-293 cells expressing human A2B, agonist NECA 12 nM. Here is the method:
Example B. Adenosine A2B Receptor Cyclic AMP GS Assay
Stably transfected HEK-293 cells expressing the human adenosine A2B receptor (Perkin Elmer) were maintained in MEM culture medium with 10% FBS and 100 μg/mL Geneticin (Life Technologies). 18 to 24 hours prior to assay, geneticin was removed from culture. The cisbio cAMP-GS Dynamic kit utilizing the FRET (Fluorescence Resonance Energy Transfer) technology was used to measure cAMP accumulation in the cells. Compounds of the present disclosure at an appropriate concentration were mixed with 10000 cells/well in white 96 well half area plates (Perkin Elmer) for 30 min at room temperature gently shaking. Agonist, NECA (R&D Technologies) at 12 nM was added to each well for 60 min at room temperature gently shaking. Detection reagents, d2-labeled cAMP (acceptor) and anti-cAMP cryptate (donor) were added to each well for 60 min at rt gently shaking. Plates were read on Pherastar (BMG Labtech), fluorescence ratio 665/620 was calculated and EC50 determination was performed by fitting the curve of percent of control versus the log of the compound concentration using GraphPad Prism.

Assay [2] addresses Adenosine A2A (Homo sapiens (Human), UniProt P29274). Description: A2A Tag-Lite HTRF assay. It is filed as binding. An excerpt: Example C. A2A Tag-Lite® HTRF Assay
The mark [3] stands for this setting: read-out: A2A_Ki, Tag-Lite Adenosine A2A labeled cells, fluorescent ligand 12.5 nM.
[4] abbreviates: Tag-Lite Adenosine A2A labeled cells, fluorescent ligand 12.5 nM, read-out: A2A_Ki.

Where two headings read alike, the source gives them in different places.

Chain of human adenosine A2B receptor (P29275 whole entry): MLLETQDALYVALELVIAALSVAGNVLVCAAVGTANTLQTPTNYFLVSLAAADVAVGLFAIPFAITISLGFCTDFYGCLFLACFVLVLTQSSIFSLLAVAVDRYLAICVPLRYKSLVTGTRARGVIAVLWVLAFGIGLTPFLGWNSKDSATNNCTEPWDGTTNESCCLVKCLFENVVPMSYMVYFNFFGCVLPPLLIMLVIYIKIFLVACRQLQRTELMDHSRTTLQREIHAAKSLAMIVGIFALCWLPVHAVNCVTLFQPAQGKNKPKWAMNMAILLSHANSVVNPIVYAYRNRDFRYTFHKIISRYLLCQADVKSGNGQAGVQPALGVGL
Chain of Adenosine A2A (P29274 whole entry): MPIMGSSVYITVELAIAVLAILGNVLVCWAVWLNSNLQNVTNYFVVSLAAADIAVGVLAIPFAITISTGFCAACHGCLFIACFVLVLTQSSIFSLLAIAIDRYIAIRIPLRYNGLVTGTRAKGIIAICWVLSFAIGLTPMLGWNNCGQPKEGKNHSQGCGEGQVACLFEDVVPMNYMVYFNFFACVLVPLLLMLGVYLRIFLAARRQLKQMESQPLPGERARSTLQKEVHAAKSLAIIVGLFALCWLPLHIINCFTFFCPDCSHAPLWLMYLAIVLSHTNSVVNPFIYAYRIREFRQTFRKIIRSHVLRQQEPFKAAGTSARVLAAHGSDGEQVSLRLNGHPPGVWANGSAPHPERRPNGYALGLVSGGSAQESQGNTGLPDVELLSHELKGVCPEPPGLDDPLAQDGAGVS

`Cc1n[nH]cc1-c1c(-c2cccc(C#N)c2)nc(N)c2nc(C(O)c3c(F)cccc3F)nn12` (single isomer, unassigned) [Example 102, 3-(8-amino-2-((2,6-difluorophenyl)(hydroxy)methyl)-5-(3-methyl-1H-pyrazol-4-yl)-[1,2,4]triazolo[1,5-a]pyrazin-6-yl)benzonitrile] yielded an EC50 in assay [1] (A2B_cAMP_EC50 (nM)) below 10 nM. The compound also yielded a Ki in assay [2] below 10 nM.

Consider `Cc1n[nH]cc1-c1c(-c2cccc(C#N)c2)nc(N)c2nc(C(O)c3c(F)cccc3F)nn12` (single isomer, unassigned) [Example 103, 3-(8-amino-2-((2,6-difluorophenyl)(hydroxy)methyl)-5-(3-methyl-1H-pyrazol-4-yl)-[1,2,4]triazolo[1,5-a]pyrazin-6-yl)benzonitrile], for which, in assay [1] (read-out: A2B_cAMP_EC50), the EC50 is below 10 nM. The Ki in assay [2] (setting [3]) was below 10 nM.

The compound `N#Cc1cccc(-c2nc(N)c3nc(C(O)c4c(F)cccc4F)nn3c2-c2cnco2)c1` (single isomer, unassigned) [Example 105, 3-(8-amino-2-((2,6-difluorophenyl)(hydroxy)methyl)-5-(oxazol-5-yl)-[1,2,4]triazolo[1,5-a]pyrazin-6-yl)benzonitrile] showed an EC50 in assay [1] (A2B_cAMP_EC50 (nM)) below 10 nM. Further, the Ki in assay [2] is below 10 nM.

For the compound `N#Cc1cccc(-c2nc(N)c3nc(C(O)c4c(F)cccc4F)nn3c2-c2cnco2)c1` (single isomer, unassigned) [Example 106, 3-(8-amino-2-((2,6-difluorophenyl)(hydroxy)methyl)-5-(oxazol-5-yl)-[1,2,4]triazolo[1,5-a]pyrazin-6-yl)benzonitrile], the EC50 in assay [1] (read-out: A2B_cAMP_EC50) was below 10 nM. The Ki in assay [2] (setting [3]) was below 10 nM.

Compound `Cc1cnccc1-c1c(-c2cccc(C#N)c2)nc(N)c2nc(C(O)c3c(F)cccc3F)nn12` (single isomer, unassigned) [Example 108, 3-(8-amino-2-((2,6-difluorophenyl)(hydroxy)methyl)-5-(3-methylpyridin-4-yl)-[1,2,4]triazolo[1,5-a]pyrazin-6-yl)benzonitrile] showed an EC50 in assay [1] (A2B_cAMP_EC50 (nM)) below 10 nM. In assay [2], this compound came in with a Ki below 10 nM.

For `Cc1cnccc1-c1c(-c2cccc(C#N)c2)nc(N)c2nc(C(O)c3c(F)cccc3F)nn12` (single isomer, unassigned) [Example 109, 3-(8-amino-2-((2,6-difluorophenyl)(hydroxy)methyl)-5-(3-methylpyridin-4-yl)-[1,2,4]triazolo[1,5-a]pyrazin-6-yl)benzonitrile], the EC50 in assay [1] (read-out: A2B_cAMP_EC50) was below 10 nM. Also, the Ki in assay [2] (setting [3]) is below 10 nM.

Compound `N#Cc1cccc(-c2nc(N)c3nc(C(O)c4c(F)cccc4CN4CCCC4)nn3c2-c2ccncn2)c1` (single isomer, unassigned) [Example 110, 3-(8-amino-2-((2-fluoro-6-(pyrrolidin-1-ylmethyl)phenyl)(hydroxy)methyl)-5-(pyrimidin-4-yl)-[1,2,4]triazolo[1,5-a]pyrazin-6-yl)benzonitrile] came in with an EC50 in assay [1] (A2B_cAMP_EC50 (nM)) of 100 to 1000 nM. This compound also displayed a Ki in assay [2] below 10 nM.

In turn, `N#Cc1cccc(-c2nc(N)c3nc(C(O)c4c(F)cccc4CN4CCCC4)nn3c2-c2ccncn2)c1` (single isomer, unassigned) [Example 111, 3-(8-amino-2-((2-fluoro-6-(pyrrolidin-1-ylmethyl)phenyl)(hydroxy)methyl)-5-(pyrimidin-4-yl)-[1,2,4]triazolo[1,5-a]pyrazin-6-yl)benzonitrile] came in with an EC50 in assay [1] (A2B_cAMP_EC50 (nM)) below 10 nM. For the same compound, the Ki in assay [2] (setting [3]) was below 10 nM.

For `CCNC(=O)c1cc2c(N)nc(-c3cccc(C#N)c3)c(-c3ccnn3CC)n2n1` [Example 1, 4-Amino-6-(3-cyanophenyl)-N-ethyl-7-(1-ethyl-1H-pyrazol-5-yl)pyrazolo[1,5-a]pyrazine-2-carboxamide], the EC50 in assay [1] (A2B_cAMP_EC50 (nM)) was in the range of 10 to 100 nM. In addition, the Ki in assay [2] (setting [4]) is below 10 nM.

For `CCCn1nccc1-c1c(-c2cccc(C#N)c2)nc(N)c2cc(C(=O)NCC)nn12` [Example 2, 4-Amino-6-(3-cyanophenyl)-N-ethyl-7-(1-propyl-1H-pyrazol-5-yl)pyrazolo[1,5-a]pyrazine-2-carboxamide], the EC50 in assay [1] (A2B_cAMP_EC50 (nM)) fell in the range of 10 to 100 nM. In addition, the Ki in assay [2] (setting [4]) is below 10 nM.

Take `CCNC(=O)c1cc2c(N)nc(-c3cccc(C#N)c3)c(-c3ccc(=O)n(C)c3)n2n1` [Example 3, 4-Amino-6-(3-cyanophenyl)-N-ethyl-7-(1-methyl-6-oxo-1,6-dihydropyridin-3-yl)pyrazolo[1,5-a]pyrazine-2-carboxamide]: in assay [1] (A2B_cAMP_EC50 (nM)), the EC50 was in the range of 100 to 1000 nM. Moreover, in assay [2] (setting [4]), the Ki was below 10 nM.

In assay [1] (A2B_cAMP_EC50 (nM)), `CCNC(=O)c1cc2c(N)nc(-c3cccc(C#N)c3)c(-c3ccncn3)n2n1` [Example 4, 4-Amino-6-(3-cyanophenyl)-N-ethyl-7-(pyrimidin-4-yl)pyrazolo[1,5-a]pyrazine-2-carboxamide] showed an EC50 of 10 to 100 nM. Moreover, the Ki in assay [2] (setting [4]) is below 10 nM.

As for `CCNC(=O)c1cc2c(N)nc(-c3cccc(C#N)c3)c(C(C)(F)F)n2n1` [Example 5, 4-Amino-6-(3-cyanophenyl)-7-(1,1-difluoroethyl)-N-ethylpyrazolo[1,5-a]pyrazine-2-carboxamide], the EC50 in assay [1] (A2B_cAMP_EC50 (nM)) was 100 to 1000 nM. Also, the Ki in assay [2] (setting [4]) is below 10 nM.

For the compound `CCNC(=O)c1cc2c(N)nc(-c3cccc(C#N)c3)c(C3(C(F)(F)F)CC3)n2n1` [Example 6, 4-Amino-6-(3-cyanophenyl)-N-ethyl-7-(1-(trifluoromethyl)cyclopropyl)pyrazolo[1,5-a]pyrazine-2-carboxamide], in assay [1] (A2B_cAMP_EC50 (nM)), the EC50 was above 1000 nM. In assay [2], this compound had a Ki of 10 to 100 nM.

The compound `N#Cc1cccc(-c2nc(N)c3cc(C(=O)N4CCC4)nn3c2-c2ccncn2)c1` [Example 7, 3-(4-Amino-2-(azetidine-1-carbonyl)-7-(pyrimidin-4-yl)pyrazolo[1,5-a]pyrazin-6-yl)benzonitrile] registered an EC50 in assay [1] (A2B_cAMP_EC50 (nM)) below 10 nM. Further, the Ki in assay [2] (setting [4]) was below 10 nM.

Consider `N#Cc1cccc(-c2nc(N)c3cc(C(=O)N4CCCC4)nn3c2-c2ccncn2)c1` [Example 8, 3-(4-Amino-7-(pyrimidin-4-yl)-2-(pyrrolidine-1-carbonyl)pyrazolo[1,5-a]pyrazin-6-yl)benzonitrile], for which, in assay [1] (A2B_cAMP_EC50 (nM)), the EC50 is 10 to 100 nM. In addition, the Ki in assay [2] (setting [4]) was below 10 nM.

The compound `N#Cc1cccc(-c2nc(N)c3cc(C(=O)N4CCCCC4)nn3c2-c2ccncn2)c1` [Example 9, 3-(4-Amino-2-(piperidine-1-carbonyl)-7-(pyrimidin-4-yl)pyrazolo[1,5-a]pyrazin-6-yl)benzonitrile] returned an EC50 in assay [1] (A2B_cAMP_EC50 (nM)) of 10 to 100 nM. Further, in assay [2] (setting [4]), the Ki was below 10 nM.

Compound `CCN(CC)C(=O)c1cc2c(N)nc(-c3cccc(C#N)c3)c(-c3ccncn3)n2n1` [Example 10, 4-Amino-6-(3-cyanophenyl)-N,N-diethyl-7-(pyrimidin-4-yl)pyrazolo[1,5-a]pyrazine-2-carboxamide] registered an EC50 in assay [1] (A2B_cAMP_EC50 (nM)) below 10 nM. Moreover, the Ki in assay [2] (setting [4]) was below 10 nM.

In the case of `CCN(C)C(=O)c1cc2c(N)nc(-c3cccc(C#N)c3)c(-c3ccncn3)n2n1` [Example 11, 4-Amino-6-(3-cyanophenyl)-N-ethyl-N-methyl-7-(pyrimidin-4-yl)pyrazolo[1,5-a]pyrazine-2-carboxamide], the EC50 in assay [1] (A2B_cAMP_EC50 (nM)) is below 10 nM. In addition, the Ki in assay [2] (setting [4]) is below 10 nM.

In assay [1] (A2B_cAMP_EC50 (nM)), `N#Cc1cccc(-c2nc(N)c3cc(C(=O)N4CC(O)C4)nn3c2-c2ccncn2)c1` [Example 12, 3-(4-Amino-2-(3-hydroxyazetidine-1-carbonyl)-7-(pyrimidin-4-yl)pyrazolo[1,5-a]pyrazin-6-yl)benzonitrile] returned an EC50 of 10 to 100 nM. Besides, the Ki in assay [2] (setting [4]) was below 10 nM.

Take `N#Cc1cccc(-c2nc(N)c3cc(CN4CCC4)nn3c2-c2ccncn2)c1` [Example 13, 3-(4-Amino-2-(azetidin-1-ylmethyl)-7-(pyrimidin-4-yl)pyrazolo[1,5-a]pyrazin-6-yl)benzonitrile]: the EC50 in assay [1] (A2B_cAMP_EC50 (nM)) fell in the range of 100 to 1000 nM. This compound returned a Ki in assay [2] of 10 to 100 nM.

`CCOC(=O)Nc1nc2c(N)nc(-c3cccc(C#N)c3)cn2n1` [Example 14, Ethyl(8-amino-6-(3-cyanophenyl)-[1,2,4]triazolo[1,5-a]pyrazin-2-yl)carbamate]: the EC50 in assay [1] (A2B_cAMP_EC50 (nM)) is above 1000 nM. The Ki in assay [2] lay within 10 to 100 nM.

Turning to `N#Cc1cccc(-c2nc(N)c3ncnn3c2-c2ccc(=O)[nH]c2)c1` [Example 15, 3-(8-Amino-5-(6-oxo-1,6-dihydropyridin-3-yl)-[1,2,4]triazolo[1,5-a]pyrazin-6-yl)benzonitrile], the EC50 in assay [1] (A2B_cAMP_EC50 (nM)) was below 10 nM. In addition, the Ki in assay [2] (setting [4]) is below 10 nM.

In assay [1] (A2B_cAMP_EC50 (nM)), `N#Cc1cccc(-c2cn3nc(Cc4ccccn4)cc3c(N)n2)c1` [Example 16, 3-(4-Amino-2-(pyridin-2-ylmethyl)pyrazolo[1,5-a]pyrazin-6-yl)benzonitrile] gave an EC50 below 10 nM. Besides, the Ki in assay [2] (setting [4]) is below 10 nM.

Compound `N#Cc1cccc(-c2nc(N)c3cc(Cc4ccccn4)nn3c2-c2ccncn2)c1` [Example 17, 3-(4-Amino-2-(pyridin-2-ylmethyl)-7-(pyrimidin-4-yl)pyrazolo[1,5-a]pyrazin-6-yl)benzonitrile] came in with an EC50 in assay [1] (A2B_cAMP_EC50 (nM)) below 10 nM. Also, the Ki in assay [2] (setting [4]) is below 10 nM.

Compound `CCn1nccc1-c1c(-c2cccc(C#N)c2)nc(N)c2cc(Cc3ccccn3)nn12` [Example 18, 3-(4-Amino-7-(1-ethyl-1H-pyrazol-5-yl)-2-(pyridin-2-ylmethyl)pyrazolo[1,5-a]pyrazin-6-yl)benzonitrile] had an EC50 in assay [1] (A2B_cAMP_EC50 (nM)) below 10 nM. The Ki in assay [2] (setting [4]) was below 10 nM.

These data come from US11161850B2, “Fused pyrazine derivatives as A2A / A2B inhibitors” (Incyte Corporation, priority 2018, dated 2021).
